Laboratory results from ChEMBL document CHEMBL1201862, “PubChem BioAssay data set” (2004).
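Cells were grown in 96-well plates and exposed to each compound for 48 hours at five concentrations; endpoints were interpolated linearly between bracketing concentrations, or set to the highest concentration if not reached. GI50 marks 50% less growth.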 Active and inactive are the calls of the source. No stated cut-off is given here; in the data, active = GI50 up to about 1.1 µM and inactive = higher.

Columns and labels:
Experiment in all cases: DTP human tumour cell line panel, 48 h
CAKI-1 = tested on: CAKI-1
COLO 205 = tested on: COLO 205
DU-145 = tested on: DU-145
HCC 2998 = tested on: HCC 2998
HCT-15 = tested on: HCT-15
HL-60 = tested on: HL-60
K562 = tested on: K562
LOX IMVI = tested on: LOX IMVI
MCF7 = tested on: MCF7
NCI-H460 = tested on: NCI-H460
OVCAR-4 = tested on: OVCAR-4
OVCAR-8 = tested on: OVCAR-8
PC-3 = tested on: PC-3
RPMI-8226 = tested on: RPMI-8226
SN12C = tested on: SN12C
SNB-19 = tested on: SNB-19
SW-620 = tested on: SW-620
U-251 = tested on: U-251
ACHN = tested on: ACHN
M14 = tested on: M14

Row | SMILES | GI50 (CAKI-1) | GI50 (COLO 205) | GI50 (DU-145) | GI50 (HCC 2998) | GI50 (HCT-15) [µM] | GI50 (HL-60) | GI50 (K562) | GI50 (LOX IMVI) | GI50 (MCF7) | GI50 (NCI-H460) | GI50 (OVCAR-4) | GI50 (OVCAR-8) | GI50 (PC-3) | GI50 (RPMI-8226) | GI50 (SN12C) | GI50 (SNB-19) | GI50 (SW-620) | GI50 (U-251) | GI50 (ACHN) | GI50 (M14)
1 | CSc1c(C#N)c(=O)n(N)c2[nH]nc(C)c12 | 45.2 µM (inactive) | > 100 µM (inactive) | > 100 µM (inactive) | > 100 µM (inactive) | > 100 | > 100 µM (inactive) | > 100 µM (inactive) | > 100 µM (inactive) | > 100 µM (inactive) | > 100 µM (inactive) | > 100 µM (inactive) | > 100 µM (inactive) | > 100 µM (inactive) | > 100 µM (inactive) | > 100 µM (inactive) | > 100 µM (inactive) | > 100 µM (inactive) | > 100 µM (inactive) | – | –
2 | O=C1c2cc3c(cc2CC12Cc1ccc4c(c1C2=O)CCC4)CCC3 (stereo not given) | > 100 µM (inactive) | – | > 100 µM (inactive) | > 100 µM (inactive) | > 100 | > 100 µM (inactive) | > 100 µM (inactive) | > 100 µM (inactive) | > 100 µM (inactive) | > 100 µM (inactive) | 50.6 µM (inactive) | > 100 µM (inactive) | > 100 µM (inactive) | > 100 µM (inactive) | – | 94.6 µM (inactive) | > 100 µM (inactive) | 33.6 µM (inactive) | > 100 µM (inactive) | > 100 µM (inactive)
3 | CCc1nc(N)c2nc(-c3ccc(C#N)cc3)oc2n1 | > 100 µM (inactive) | > 100 µM (inactive) | > 100 µM (inactive) | > 100 µM (inactive) | > 100 | > 10 µM (inactive) | > 100 µM (inactive) | > 100 µM (inactive) | > 100 µM (inactive) | > 100 µM (inactive) | – | > 100 µM (inactive) | > 100 µM (inactive) | > 100 µM (inactive) | > 100 µM (inactive) | > 100 µM (inactive) | > 100 µM (inactive) | – | > 100 µM (inactive) | > 100 µM (inactive)
4 | O=C1C[C@@]23CCC4(CC2CCC[C@H]3O1)OCCO4 (stereo not given in full) | – | > 100 µM (inactive) | > 100 µM (inactive) | > 100 µM (inactive) | > 100 | > 100 µM (inactive) | > 100 µM (inactive) | > 100 µM (inactive) | > 100 µM (inactive) | > 100 µM (inactive) | > 100 µM (inactive) | > 100 µM (inactive) | > 100 µM (inactive) | > 100 µM (inactive) | > 100 µM (inactive) | > 100 µM (inactive) | > 100 µM (inactive) | > 100 µM (inactive) | > 100 µM (inactive) | > 100 µM (inactive)
5 | O=C(Nc1ccccc1)N1CC(CN2CCN(c3ccccc3)CC2)OC1=O (stereo not given) | > 100 µM (inactive) | > 100 µM (inactive) | > 100 µM (inactive) | > 100 µM (inactive) | > 100 | > 100 µM (inactive) | > 100 µM (inactive) | > 100 µM (inactive) | > 100 µM (inactive) | > 100 µM (inactive) | > 100 µM (inactive) | – | > 100 µM (inactive) | > 100 µM (inactive) | > 100 µM (inactive) | > 100 µM (inactive) | > 100 µM (inactive) | > 100 µM (inactive) | > 100 µM (inactive) | > 100 µM (inactive)
6 | Cc1ccc(-c2n[nH]c(=O)n2N2C(=O)c3ccccc3C2=O)cc1 | > 100 µM (inactive) | – | > 100 µM (inactive) | > 100 µM (inactive) | > 100 | > 100 µM (inactive) | > 100 µM (inactive) | > 100 µM (inactive) | > 100 µM (inactive) | > 100 µM (inactive) | – | > 100 µM (inactive) | > 100 µM (inactive) | > 100 µM (inactive) | > 100 µM (inactive) | > 100 µM (inactive) | > 100 µM (inactive) | > 100 µM (inactive) | > 100 µM (inactive) | > 100 µM (inactive)
7 | CCOC(=O)C(O)(NC(C)=O)C(F)(F)F (stereo not given) | > 100 µM (inactive) | > 100 µM (inactive) | > 100 µM (inactive) | > 100 µM (inactive) | > 100 | 43.8 µM (inactive) | > 100 µM (inactive) | > 100 µM (inactive) | > 100 µM (inactive) | – | > 100 µM (inactive) | > 100 µM (inactive) | > 100 µM (inactive) | > 100 µM (inactive) | > 100 µM (inactive) | > 100 µM (inactive) | > 100 µM (inactive) | > 100 µM (inactive) | > 100 µM (inactive) | > 100 µM (inactive)
8 | COc1ccc2c(c1)CC[C@@H]1[C@@H]2CC[C@]2(C)C(=O)/C(=C/c3ccc(O)c(OC)c3)C[C@@H]12 | 67.8 µM (inactive) | > 100 µM (inactive) | 92.9 µM (inactive) | 31.6 µM (inactive) | 28.3 | 47.8 µM (inactive) | 50.5 µM (inactive) | 36.9 µM (inactive) | 60.4 µM (inactive) | 39.4 µM (inactive) | 55.8 µM (inactive) | 91.8 µM (inactive) | 39.1 µM (inactive) | 34.7 µM (inactive) | – | > 100 µM (inactive) | 58.2 µM (inactive) | 51.3 µM (inactive) | > 100 µM (inactive) | 35.6 µM (inactive)
9 | CC(CC[C@@]1(C)C(=O)CCC2O[C@]21C)[C@H]1C[C@@H](c2ccoc2)OC1=O (stereo not given in full) | 26.5 µM (inactive) | 24.2 µM (inactive) | 57.9 µM (inactive) | > 100 µM (inactive) | 35.7 | 23.7 µM (inactive) | 22.3 µM (inactive) | 19.8 µM (inactive) | 65.6 µM (inactive) | > 100 µM (inactive) | 20.6 µM (inactive) | – | 62.2 µM (inactive) | 35.5 µM (inactive) | 27.8 µM (inactive) | > 100 µM (inactive) | 31.9 µM (inactive) | 35.9 µM (inactive) | 22.1 µM (inactive) | 72.9 µM (inactive)
10 | CN(C)/N=C1\CC(c2ccccc2)C(C#N)(C#N)C1(C#N)C#N (stereo not given) | 8.63 µM (inactive) | 5.56 µM (inactive) | 21 µM (inactive) | 18.7 µM (inactive) | 15.4 | 2.5 µM (inactive) | 3.2 µM (inactive) | 27.5 µM (inactive) | 29.9 µM (inactive) | – | 33.2 µM (inactive) | 21.1 µM (inactive) | 19 µM (inactive) | 11.8 µM (inactive) | 20.8 µM (inactive) | 24.5 µM (inactive) | 6.61 µM (inactive) | 35.3 µM (inactive) | 18.9 µM (inactive) | 17.4 µM (inactive)
11 | CCOC(=O)C(Cl)(NC(=O)OCc1ccccc1)C(F)(F)F (stereo not given) | > 100 µM (inactive) | > 100 µM (inactive) | > 100 µM (inactive) | > 100 µM (inactive) | > 100 | > 100 µM (inactive) | > 100 µM (inactive) | > 100 µM (inactive) | > 100 µM (inactive) | – | > 100 µM (inactive) | > 100 µM (inactive) | > 100 µM (inactive) | > 100 µM (inactive) | > 100 µM (inactive) | > 100 µM (inactive) | > 100 µM (inactive) | > 100 µM (inactive) | > 100 µM (inactive) | > 100 µM (inactive)
12 | c1ccc2c(c1)[nH]c1c2cc[n+]2cc3c(cc12)CCCC3 | 17.2 µM (inactive) | 0.38 µM (active) | 2.69 µM (inactive) | 1.87 µM (inactive) | 10.5 | – | 1.6 µM (inactive) | 2.39 µM (inactive) | 2.13 µM (inactive) | 1.34 µM (inactive) | 1.72 µM (inactive) | 2.42 µM (inactive) | 2.83 µM (inactive) | 1.53 µM (inactive) | 2.61 µM (inactive) | 3 µM (inactive) | 2.1 µM (inactive) | 2.51 µM (inactive) | 3.75 µM (inactive) | 2.3 µM (inactive)
13 | CC1=C(C#N)c2nc3ccccc3n2C(=O)C1(C)CCO (stereo not given) | > 100 µM (inactive) | > 100 µM (inactive) | > 100 µM (inactive) | > 100 µM (inactive) | > 100 | > 100 µM (inactive) | > 100 µM (inactive) | > 100 µM (inactive) | > 100 µM (inactive) | > 100 µM (inactive) | > 100 µM (inactive) | > 100 µM (inactive) | > 100 µM (inactive) | – | > 100 µM (inactive) | > 100 µM (inactive) | > 100 µM (inactive) | > 100 µM (inactive) | > 100 µM (inactive) | > 100 µM (inactive)
14 | CCCC(C(=O)Nc1cccc2nc[nH]c12)C(=O)OCC (stereo not given) | – | – | > 100 µM (inactive) | > 100 µM (inactive) | > 100 | > 100 µM (inactive) | > 100 µM (inactive) | > 100 µM (inactive) | > 100 µM (inactive) | > 100 µM (inactive) | > 100 µM (inactive) | > 100 µM (inactive) | > 100 µM (inactive) | > 100 µM (inactive) | > 100 µM (inactive) | > 100 µM (inactive) | > 100 µM (inactive) | > 100 µM (inactive) | > 100 µM (inactive) | > 100 µM (inactive)
15 | CCOP(=O)(OCC)C(C)(CC)N/C(N)=N/C#N (stereo not given) | – | > 100 µM (inactive) | > 100 µM (inactive) | > 100 µM (inactive) | > 100 | > 100 µM (inactive) | > 100 µM (inactive) | > 100 µM (inactive) | > 100 µM (inactive) | > 100 µM (inactive) | > 100 µM (inactive) | > 100 µM (inactive) | > 100 µM (inactive) | > 100 µM (inactive) | > 100 µM (inactive) | > 100 µM (inactive) | > 100 µM (inactive) | > 100 µM (inactive) | > 100 µM (inactive) | > 100 µM (inactive)
